Experimental findings from patent US20160184274A1, “Methods for inhibiting mesenchymal phenotype after epithelial-to-mesenchymal transition” (Fibrostatin, S.L., priority 2014, published 2016) are described below.

In the assay the target is T1, trimeric intracellular GPBP (Homo sapiens, UniProt Q9Y5P4).
T1 construct: made in house; host or cells: Sf9 insect cells (baculovirus), purified from cell lysates
T1 sequence (Q9Y5P4 1-624): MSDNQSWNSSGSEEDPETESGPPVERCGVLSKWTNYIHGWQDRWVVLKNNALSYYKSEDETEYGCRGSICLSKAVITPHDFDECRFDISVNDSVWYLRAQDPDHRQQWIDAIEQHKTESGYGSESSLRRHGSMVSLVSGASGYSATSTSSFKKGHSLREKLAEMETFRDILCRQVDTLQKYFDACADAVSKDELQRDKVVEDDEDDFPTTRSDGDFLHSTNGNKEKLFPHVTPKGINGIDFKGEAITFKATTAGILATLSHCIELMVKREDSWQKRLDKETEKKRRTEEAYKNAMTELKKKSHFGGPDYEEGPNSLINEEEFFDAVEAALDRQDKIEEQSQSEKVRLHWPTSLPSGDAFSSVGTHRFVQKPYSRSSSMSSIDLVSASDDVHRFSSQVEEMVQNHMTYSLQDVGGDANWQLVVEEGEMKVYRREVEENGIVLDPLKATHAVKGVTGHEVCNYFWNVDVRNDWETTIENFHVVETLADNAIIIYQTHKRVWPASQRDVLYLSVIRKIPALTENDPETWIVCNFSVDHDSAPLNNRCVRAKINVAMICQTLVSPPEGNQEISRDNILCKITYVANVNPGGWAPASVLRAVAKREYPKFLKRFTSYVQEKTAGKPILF
Description: In vitro phosphorylation assay with trimeric intracellular GPBP. Particulars: T12 50 μM; autophosphorylation, γ[32P]ATP; FIG. 2. The class given is biochemical. The method, then: FIG. 2. […] Multimeric extracellular and trimeric intracellular GPBP were purified by affinity chromatography and subsequent gel filtration chromatography, and used for in vitro phosphorylation assays in absence (−) or presence (+) of T12 (50 μM). Reactions were subjected to SDS-PAGE, Western blot onto PVDF membrane and autoradiography, and further protein detected with anti-FLAG primary antibodies. Autoradiography and anti-FLAG® bands were quantified with WCIF IMAGEJ® software, and the normalized kinase activity estimated. Shown are normalized kinase activities. […] Samples were analyzed in triplicate and the data represents the Mean (±SEM) of three independent assays.
FLAG®-tagged GPBP was expressed using Bac-to-Bac® Baculovirus Expression System. […] Finally, purified protein was quantified with Bio-Rad Protein Assay and stored at −20° C. […]
Typically, about 270 ng of purified FLAG®-GPBP protein, either extracellular multimer or intracellular trimer, were incubated in presence or absence of T12 […] in a kinase assay buffer containing 25 mM disodium β-glycerophosphate, 8 mM MgCl2, 0.5 mM EDTA, 0.5 mM EGTA, 1 mM DTT, 5 mM MnCl2 during 10 min at 37° C. […] Then reactions were stopped with SDS-PAGE loading buffer and heat (95° C., 3 min) and analyzed by SDS-PAGE, electro-transference to PVDF membrane (Merck Millipore) and autoradiography. […]

As to `COc1ccc(-c2ccc(-c3cccc(C)c3)c(C)c2)c(CCC(=O)O)c1` [T12, 3-[4″-methoxy-3,2′-dimethyl-(1,1′;4′,1″)terphenyl-2″-yl] propionic acid], the “normalized kinase activity of GPBP” value is listed as “not intracellular GPBP trimers”.
